The test system of test [1] is EVSA-T (human breast carcinoma). Kind of test: Anti-proliferative activity, Alamar Blue assay, EVSA-T. Type of test: cell-based. The following applies: EVSA-T cell line, read-out: EVSA-T prolif (EC50). For orientation: The colour change of resazurin is a common sign of viable cells or microbes.
Test [2] deals with T1, BIR3 domain of human XIAP (Homo sapiens, UniProt P98170).
T1 construct: BIR3 domain of human XIAP (residues 252-350) fused to a His-tag; His-tag (cleaved yes); made in house; host or cells: Escherichia coli
T1 sequence (P98170 252-350): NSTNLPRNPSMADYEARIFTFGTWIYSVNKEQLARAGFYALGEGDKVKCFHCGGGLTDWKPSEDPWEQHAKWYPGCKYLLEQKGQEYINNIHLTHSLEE
Nature of the test: XIAP in vitro competitive displacement binding assay (fluorescence polarization). As to conditions: for pIC50: XIAP BIR3 fluorescence polarization displacement, average (e.g. geometric mean), read-out: Xiap IC50 or PI (IC50); for inhibition at […]: at 0.12 μM; for inhibition at […] / inhibition at 0.04 µM: read-out: Xiap IC50 or PI (percent inhibition). A general note: In fluorescence polarisation assays a small probe gives low polarisation when free and higher when bound to something large.

Test [3] has as its target T2, BIR3 domain of human cIAP-1 (Homo sapiens, UniProt Q13490).
T2 construct: human cIAP-1 (residues 267-363) fused to a GST-tag; GST-tag (cleaved yes); made in house; host or cells: Escherichia coli
Kind of test: cIAP-1 in vitro competitive displacement binding assay (fluorescence polarization). The following applies: at 0.012 μM; read-out: cIAP1 IC50 or PI (percent inhibition).

pEC50, pIC50: −log10 of the molar value. Counter-ions that a name gives are not always drawn. Like-named read-outs stand apart in the source and are kept apart here. Some results are limits rather than exact numbers.

T2 sequence (Q13490 267-363): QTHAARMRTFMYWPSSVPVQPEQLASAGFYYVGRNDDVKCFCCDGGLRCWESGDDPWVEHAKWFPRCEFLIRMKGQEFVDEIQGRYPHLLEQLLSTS

With `Cc1cn(C[C@H]2CN[C@H](C)CN2CC(=O)N2CC(C)(C)c3ncc(Cc4ccc(F)cc4)cc32)cn1` (single isomer, unassigned) [Example 13, dihydrochloride], in test [1] (72 hours), the negative-log EC50 (pEC50) (as a rule, −log10 of the EC50, conventionally taken in molar units) is 8.00. On to `Cc1cncn1C[C@H]1CN[C@H](C)CN1CC(=O)N1CC(C)(C)c2ncc(Cc3ccc(F)cc3)cc21` (single isomer, unassigned) [Example 14, dihydrochloride], for which the pEC50 in test [1] (72 hours) was 8.23. For `Cc1cnn(C[C@H]2CN[C@H](C)CN2CC(=O)N2CC(C)(C)c3ncc(Cc4ccc(F)cc4)cc32)c1C` (single isomer, unassigned) [Example 20, dihydrochloride], the pEC50 in test [1] (72 hours) was above 6.00; in test [1] (EVSA-T, 72 h), 8.68. In the case of `Cc1cc(C)n(C[C@H]2CN[C@H](C)CN2CC(=O)N2CC(C)(C)c3ncc(Cc4ccc(F)cc4)cc32)n1` [Example 1, 2-[(2R,5R)-2-[(3,5-Dimethyl-1H-pyrazol-1-yl)methyl]-5-methylpiperazin-1-yl]-1-{6-[(4-fluorophenyl)methyl]-3,3-dimethyl-1H,2H,3H-pyrrolo[3,2-b]pyridin-1-yl}ethan-1-one, dihydrochloride], in test [2], the pIC50 – broadly, the IC50 on a negative log10 scale, so that one unit is a factor of ten – was 7.04. Turning to `Cc1nccn1C[C@H]1CN[C@H](C)CN1CC(=O)N1CC(C)(C)c2ncc(Cc3ccc(F)cc3)cc21` [Example 2, 1-{6-[(4-Fluorophenyl)methyl]-3,3-dimethyl-1H,2H,3H-pyrrolo[3,2-b]pyridin-1-yl}-2-[(2R,5R)-5-methyl-2-[(2-methyl-1H-imidazol-1-yl)methyl]piperazin-1-yl]ethan-1-one, dihydrochloride], the inhibition (in general, how much of the control response was suppressed) at […] came to 100% in test [3] and 65% in test [2]. As for `Cc1ncn(C[C@H]2CN[C@H](C)CN2CC(=O)N2CC(C)(C)c3ncc(Cc4ccc(F)cc4)cc32)c1C` [Example 3, 2-[(2R,5R)-2-[(4,5-Dimethyl-1H-imidazol-1-yl)methyl]-5-methylpiperazin-1-yl]-1-{6-[(4-fluorophenyl)methyl]-3,3-dimethyl-1H,2H,3H-pyrrolo[3,2-b]pyridin-1-yl}ethan-1-one, dihydrochloride], the inhibition at […] in test [3] was 99%. The inhibition at 0.04 µM in test [2] was 34%. As for `CCc1nccn1C[C@H]1CN[C@H](C)CN1CC(=O)N1CC(C)(C)c2ncc(Cc3ccc(F)cc3)cc21` [Example 4, 2-[(2R,5R)-2-[(2-Ethyl-1H-imidazol-1-yl)methyl]-5-methylpiperazin-1-yl]-1-{6-[(4-fluorophenyl)methyl]-3,3-dimethyl-1H,2H,3H-pyrrolo[3,2-b]pyridin-1-yl}ethan-1-one, dihydrochloride], the inhibition at […] in test [3] turned out to be 96%. In addition, the inhibition at 0.04 µM in test [2] came to 35%. Consider `C[C@@H]1CN(CC(=O)N2CC(C)(C)c3ncc(Cc4ccc(F)cc4)cc32)[C@@H](Cn2ccnc2C(F)(F)F)CN1` [Example 5, 1-{6-[(4-Fluorophenyl)methyl]-3,3-dimethyl-1H,2H,3H-pyrrolo[3,2-b]pyridin-1-yl}-2-[(2R,5R)-5-methyl-2-{[2-(trifluoromethyl)-1H-imidazol-1-yl]methyl}piperazin-1-yl]ethan-1-one, dihydrochloride], for which the inhibition at […] in test [3] came out at 96%. Moreover, the negative logarithm of the IC50 (pIC50) in test [2] is 6.96.

Take `C[C@@H]1CN(CC(=O)N2CC(C)(C)c3ncc(Cc4ccc(F)cc4)cc32)[C@@H](Cn2ccnc2)CN1` [Example 6, 1-{6-[(4-Fluorophenyl)methyl]-3,3-dimethyl-1H,2H,3H-pyrrolo[3,2-b]pyridin-1-yl}-2-[(2R,5R)-2-(1H-imidazol-1-ylmethyl)-5-methylpiperazin-1-yl]ethan-1-one, dihydrochloride]: in test [2], the inhibition at […] amounted to 54%. `Cc1cn(C[C@H]2CN[C@H](C)CN2CC(=O)N2CC(C)(C)c3ncc(Cc4ccc(F)cc4)cc32)c(C)n1` [Example 7, 2-[(2R,5R)-2-[(2,4-Dimethyl-1H-imidazol-1-yl)methyl]-5-methylpiperazin-1-yl]-1-{6-[(4-fluorophenyl)methyl]-3,3-dimethyl-1H,2H,3H-pyrrolo[3,2-b]pyridin-1-yl}ethan-1-one, dihydrochloride]: the pEC50 in test [1] (72 hours) was 8.54. As to `C[C@@H]1CN(CC(=O)N2CC(C)(C)c3ncc(Cc4ccc(F)cc4)cc32)[C@@H](Cn2ccnc2Cl)CN1` [Example 8, 2-[(2R,5R)-2-[(2-Chloro-1H-imidazol-1-yl)methyl]-5-methylpiperazin-1-yl]-1-{6-[(4-fluorophenyl)methyl]-3,3-dimethyl-1H,2H,3H-pyrrolo[3,2-b]pyridin-1-yl}ethan-1-one, dihydrochloride], the inhibition at […] in test [3] was 100%. In test [2], the inhibition at 0.04 µM was 36%.

As to `Cc1ccc(=O)n(C[C@H]2CN[C@H](C)CN2CC(=O)N2CC(C)(C)c3ncc(Cc4ccc(F)cc4)cc32)c1` [Example 9, 1-{[(2R,5R)-1-(2-{6-[(4-Fluorophenyl)methyl]-3,3-dimethyl-1H,2H,3H-pyrrolo[3,2-b]pyridin-1-yl}-2-oxoethyl)-5-methylpiperazin-2-yl]methyl}-5-methyl-1,2-dihydropyridin-2-one, dihydrochloride], the inhibition at […] in test [3] was 92%. Moreover, the inhibition at 0.04 µM in test [2] came out at 35%. For `C[C@@H]1CN(CC(=O)N2CC(C)(C)c3ncc(Cc4ccc(F)cc4)cc32)[C@@H](Cn2ccnc2C#N)CN1` [Example 10, 1-{[(2R,5R)-1-(2-{6-[(4-Fluorophenyl)methyl]-3,3-dimethyl-1H,2H,3H-pyrrolo[3,2-b]pyridin-1-yl}-2-oxoethyl)-5-methylpiperazin-2-yl]methyl}-1H-imidazole-2-carbonitrile, L-lactate], the pEC50 in test [1] (EVSA-T, 72 h) is 8.19. As to `Cc1nc(Cl)cn1C[C@H]1CN[C@H](C)CN1CC(=O)N1CC(C)(C)c2ncc(Cc3ccc(F)cc3)cc21` [Example 11, 2-[(2R,5R)-2-[(4-Chloro-2-methyl-1H-imidazol-1-yl)methyl]-5-methylpiperazin-1-yl]-1-{6-[(4-fluorophenyl)methyl]-3,3-dimethyl-1H,2H,3H-pyrrolo[3,2-b]pyridin-1-yl}ethan-1-one, dihydrochloride], in test [1] (EVSA-T, 72 h), the negative logarithm of the EC50 (pEC50) was 8.74. With `Cc1cnnn1C[C@H]1CN[C@H](C)CN1CC(=O)N1CC(C)(C)c2ncc(Cc3ccc(F)cc3)cc21` [Example 15, 1-{6-[(4-Fluorophenyl)methyl]-3,3-dimethyl-1H,2H,3H-pyrrolo[3,2-b]pyridin-1-yl}-2-[(2R,5R)-5-methyl-2-[(5-methyl-1H-1,2,3-triazol-1-yl)methyl]piperazin-1-yl]ethan-1-one, dihydrochloride], the negative-log EC50 (pEC50) in test [1] (72 hours) is 8.03. The pIC50 in test [2] is 6.66.

Regarding `Cc1cn(C[C@H]2CN[C@H](C)CN2CC(=O)N2CC(C)(C)c3ncc(Cc4ccc(F)cc4)cc32)nn1` [Example 16, 1-{6-[(4-Fluorophenyl)methyl]-3,3-dimethyl-1H,2H,3H-pyrrolo[3,2-b]pyridin-1-yl}-2-[(2R,5R)-5-methyl-2-[(4-methyl-1H-1,2,3-triazol-1-yl)methyl]piperazin-1-yl]ethan-1-one, dihydrochloride], the pEC50 in test [1] (72 hours) was 8.07. For the molecule `Cc1ncnn1C[C@H]1CN[C@H](C)CN1CC(=O)N1CC(C)(C)c2ncc(Cc3ccc(F)cc3)cc21` [Example 21, 1-{6-[(4-Fluorophenyl)methyl]-3,3-dimethyl-1H,2H,3H-pyrrolo[3,2-b]pyridin-1-yl}-2-[(2R,5R)-5-methyl-2-[(5-methyl-1H-1,2,4-triazol-1-yl)methyl]piperazin-1-yl]ethan-1-one], the inhibition at […] turned out to be 95% in test [3] and 61% in test [2]. Consider `Cc1cc(C[C@H]2CN[C@H](C)CN2CC(=O)N2CC(C)(C)c3ncc(Cc4ccc(F)cc4F)cc32)n(C)n1` [Example 22, 1-{6-[(2,4-Difluorophenyl)methyl]-3,3-dimethyl-1H,2H,3H-pyrrolo[3,2-b]pyridin-1-yl}-2-[(2S,5R)-2-[(1,3-dimethyl-1H-pyrazol-5-yl)methyl]-5-methylpiperazin-1-yl]ethan-1-one, dihydrochloride], for which, in test [2], the inhibition at 0.04 µM was 47%. `Cc1cn(C[C@H]2CN[C@H](C)CN2CC(=O)N2CC(C)(C)c3ncc(Cc4ccc(F)cc4)cc32)ccc1=O` [Example 38, 1-{[(2R,5R)-1-(2-{6-[(4-Fluorophenyl)methyl]-3,3-dimethyl-1H,2H,3H-pyrrolo[3,2-b]pyridin-1-yl}-2-oxoethyl)-5-methylpiperazin-2-yl]methyl}-3-methyl-1,4-dihydropyridin-4-one, dihydrochloride]: the inhibition at […] in test [3] was found to be 94%. For the same molecule, the inhibition at 0.04 µM in test [2] turned out to be 48%.

The values are drawn from patent US9663512B2, “Bicyclic heterocycle compounds and their uses in therapy” (ASTEX THERAPEUTICS LIMITED, priority 2012, dated 2017).
